Laboratory results as given in article PMC10321483 (Chemical Science, 2023).

Target: T1, LdtMt2-ebselen complex (Mycobacterium tuberculosis, UniProt I6Y9J2)
T1 construct: made in house; host or cells: E. coli
Assay: SPE-MS active-site selectivity assay with ebselen-preincubated LdtMt2
Type: binding
Details: inhibitor 100 µM, 24 h
Experimental: LdtMt2 contains only a single cysteine residue (Cys354). However, as several identified electrophiles are able to react with residues other than cysteine,[30,31] it was assessed whether covalent modification of LdtMt2 by the inhibitors is related to reaction with Cys354. […] Apparently complete LdtMt2 modification by a single molecule of ebselen (+274 Da) was observed. Inhibitors 1–21 were then added to the ebselen derived LdtMt2 complex (Fig. S11 ^†).
Figure S11. Protein observed SPE-MS based active -site selectivity assay s. LdtMt2 (1 µM) was 153 preincubated with ebselen (10 µM, a known Ldt Mt2 inhibitor3, which reacts with the nucleophilic 154 Cys354) for 1 h in 50 mM Tris, pH 7.5 , prior to addition of inhibitors 1-15 (100 µM). Samples were 155 analysed after an additional 24 h incubation at room temperature. The spectrum in blue corresponds 156 to LdtMt2 reacted with ebselen. The spectrum in green corresponds to LdtMt2 reacted with the specified 157 inhibitor, following preincubation with ebselen. The spectrum in purple corresponds to LdtMt2 reacted 158 with the specified inhibitor. Deconvoluted spectra, obtained using the maximum entropy algorithm in 159 the MassHunter Workstation Qualitative Analysis B.07.00 program (Agilent), are shown. 160
(1 picture or pasted object on this page, not shown here)

T1 sequence (I6Y9J2 56-408, one chain of several): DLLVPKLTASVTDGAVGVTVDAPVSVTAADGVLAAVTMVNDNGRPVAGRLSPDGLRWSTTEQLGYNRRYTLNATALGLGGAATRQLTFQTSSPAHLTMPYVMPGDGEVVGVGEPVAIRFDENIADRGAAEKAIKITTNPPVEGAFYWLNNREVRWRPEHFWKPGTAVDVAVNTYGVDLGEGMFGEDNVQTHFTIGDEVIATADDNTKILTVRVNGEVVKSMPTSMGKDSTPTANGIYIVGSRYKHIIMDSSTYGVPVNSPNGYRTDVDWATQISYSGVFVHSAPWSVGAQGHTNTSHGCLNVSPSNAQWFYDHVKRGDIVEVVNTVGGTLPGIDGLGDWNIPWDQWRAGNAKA

Row | Structure (SMILES) | reaction with the LdtMt2-ebselen complex (Cys354 unavailable)
1 | CC(C)(C)OC(=O)Nc1ccc(N2C(=O)C=CC2=O)cc1 [Compound 6] | observed to react with the LdtMt2-ebselen complex
2 | CCOc1ccc(CN2C(=O)C(=O)c3cc(Br)cc(C)c32)cc1OC [Compound 16] | observed to react with the LdtMt2-ebselen complex
3 | COc1ccc(CN2C(=O)C(=O)c3cc(Br)cc(C)c32)cc1OC [Compound 17] | observed to react with the LdtMt2-ebselen complex
